Holding throughout (assay): NCI anticancer screen, dose series, 48 h
For assay [1], the system named is T-47D breast.
In assay [2] the test system is NCI-H522 lung.
In assay [3] the test system is SW-620 colon.
Assay [4] deals with OVCAR-3 ovarian.
The test system of assay [5] is PC-3 prostate.
Assay [6] has as its system KM12 colon.
For assay [7], the system named is MALME-3M melanoma.
Assay [8] concerns MDA-MB-435.
Assay [9] deals with SK-MEL-2 melanoma.
Assay [10] deals with NCI-H460 lung.

The values below come from PubChem BioAssay (NCI).

SMILES strings stand for the structures.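 In this assay, cells in 96-well plates receive the compound at five concentrations for 48 hours. Endpoints are linearly interpolated between the surrounding concentrations. GI50 is the concentration that inhibits growth by half. TGI: concentration producing complete growth inhibition.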

For the compound `Cc1[nH]nc(C(F)(F)F)c1Cc1sc2c(c1C(=O)N1C[C@](C)(O)CO1)c(=O)n(C)c(=O)n2C(C)C`, the GI50 is over 100 µM in assay [1]; 3.26 µM in assay [2]; over 100 µM in assay [3]; over 100 µM in assay [4]; over 100 µM in assay [5]; over 100 µM in [6]. In addition, the GI50 in [7], in assay [8], in [9] and in assay [10] was over 100 µM in each case. For the same compound, the TGI in [1], in assay [2], in [3], in assay [4], in [5] and in [6] was over 100 µM each time. In addition, the TGI in [7], in assay [8], in assay [9] and in [10] was over 100 µM in each case.

With `Clc1cnc(Nc2ccc(OCCN3CCCC3)cc2)nc1NCc1ccco1`, the GI50 in assay [1] is 3.14 µM; in assay [2], 1.75 µM; in assay [3], 2.26 µM; in assay [4], 3.01 µM; in assay [5] it was 2.66 µM; in assay [6], 0.643 µM. The GI50 in assay [7] was 2.1 µM; in assay [8] it was 2.73 µM; in assay [9] it was 1.8 µM; in assay [10], 2.04 µM. In addition, the TGI in assay [1] is 10.6 µM; in [2] it was 3.96 µM; in assay [3], 13 µM; in assay [4] it was 9.75 µM; in assay [5], 8.53 µM; in [6] it was 10.1 µM. Moreover, the TGI came to 5.79 µM in assay [7], 11.5 µM in assay [8], 3.48 µM in [9] and 5.36 µM in assay [10].

On to `CCCCCCCCN(CCCCCCCC)CC(O)c1cc(-c2ccccc2)nc2ccc(OC)cc12` (centres undefined), for which the GI50 was 25.6 µM in assay [1]; 53.4 µM in assay [2]; 16.5 µM in assay [3]; 21.2 µM in [4]; 47.7 µM in assay [5]; 79.9 µM in assay [6]. The GI50 in assay [7] is over 100 µM; in assay [8] it was 32.1 µM; in [9], 50.3 µM; in [10], over 100 µM. For the same compound, the TGI in assay [1] was over 100 µM; in [2] it was over 100 µM; in [3], over 100 µM; in assay [4], 61.2 µM; in assay [5] it was over 100 µM; in assay [6] it was over 100 µM. Further, the TGI in assay [7], in [8], in [9] and in assay [10] was over 100 µM throughout.

On to `COC(=O)NC(Cc1ccccc1)NC(=O)OC(C)(C)C` (centres undefined), for which the TGI in assay [1], in assay [2], in assay [3], in assay [4], in [5] and in assay [6] was over 100 µM each time. Besides, the TGI in assay [7], in assay [8], in [9] and in assay [10] was over 100 µM in each case.

Regarding `COc1ccc(C(=O)/C=C/c2ccc(OCc3cccc(C(F)(F)F)c3)c(OC)c2)cc1OC`, the GI50 is 32.1 µM in assay [1]; 39.2 µM in assay [2]; 49.7 µM in assay [3]; 48.4 µM in [4]; 61.4 µM in [5]; 55.3 µM in assay [6]. The GI50 in assay [7] was 271 µM; in [8], 45.8 µM; in [9], 187 µM; in assay [10], 51.7 µM. For the same compound, the TGI in assay [1], in assay [2], in assay [3], in assay [4], in [5] and in [6] was over 1000 µM throughout. For the same compound, the TGI in [7], in assay [8], in [9] and in assay [10] was over 1000 µM each time.

As to `O=C(Nc1ccc(Cl)c(Cl)c1)c1ccc(NC2=C(Cl)C(=O)N(Cc3ccccc3)C2=O)cc1`, the GI50 in assay [1] is 31.6 µM; in [2] it was 13.1 µM; in [4], 2.14 µM; in [5] it was 3.55 µM; in [6] it was 11.5 µM; in assay [7] it was 11.2 µM. Besides, the GI50 in [8] is 5.62 µM; in [9], 10.1 µM; in assay [10], 9.32 µM. The TGI in assay [1] stood at 92 µM; in assay [2] it was 27.2 µM; in assay [4], 4.86 µM; in assay [5], 13.4 µM; in assay [6], 27.2 µM; in assay [7], 24.8 µM. Moreover, the values for the TGI in assay [8], in [9] and in assay [10] were 19.5 µM, 22.1 µM and 22.8 µM, respectively.

With `COC(=O)C1=C(C)NC(C)=C(C(=O)OC)C1c1cccc(/[N+]([O-])=C/c2ccccc2)c1`, the TGI in assay [1] was 41.6 µM; in assay [2], 30.2 µM; in assay [3], 38 µM; in assay [4], 31.6 µM; in assay [5], over 100 µM; in assay [6], over 100 µM. For the same compound, the TGI was 29.9 µM in [7], 35.7 µM in assay [8], over 100 µM in assay [9] and over 100 µM in assay [10].

As for `CC12CCC(C1)C(C)(C)C2OC(=O)c1ccccc1N` (centres undefined), the TGI in assay [1] was determined as 32.1 µM; in assay [2], 22.7 µM; in assay [3], 29.6 µM; in [4] it was 30.8 µM; in [5] it was 27.3 µM; in [6], 38 µM. For the same compound, the TGI is 29.8 µM in [7], 31.2 µM in [8], 29.5 µM in assay [9] and 30.7 µM in assay [10].

As to `COC(=O)C1=C(C)NC(=S)NC1c1ccc(N(CCCl)CCCl)cc1Cl` (centres undefined), the TGI in assay [1] was over 55.4 µM; in [2], 81.9 µM; in [3] it was over 100 µM; in assay [4], over 94 µM; in assay [5], over 82.8 µM; in assay [6], over 73.4 µM. Also, the TGI in [7] was 41.7 µM; in assay [8] it was 37.4 µM; in assay [9], over 85.9 µM; in assay [10], over 100 µM.

For `COc1cc2ncnc(Oc3ccc(NC(=O)Nc4ccc(CN5CCOCC5)c(C(F)(F)F)c4)c4ccccc34)c2cc1OC`, the GI50 was 0.477 µM in assay [1]; 0.419 µM in [2]; 1.04 µM in assay [3]; 1.17 µM in assay [4]; 1.75 µM in assay [5]; 0.199 µM in [6]. Further, the GI50 is 0.302 µM in assay [7], 0.436 µM in assay [8], 1.61 µM in [9] and 1.37 µM in assay [10]. Besides, the TGI was 5.17 µM in [1]; 3.25 µM in assay [2]; 7.43 µM in assay [3]; 6.15 µM in [4]; 9.36 µM in assay [5]; 2.3 µM in [6]. Further, the TGI in [7] was found to be 1.54 µM; in assay [8], 2.83 µM; in assay [9], 8.3 µM; in assay [10], 3.64 µM.

`Clc1ccc2c(NC3CCC(N4CCCCC4)CC3)ccnc2c1` (centres undefined): the TGI is over 100 µM in assay [1]; 51.6 µM in assay [2]; over 100 µM in assay [3]; 59.2 µM in [4]; over 100 µM in [5]; 51.9 µM in [6]. For the same compound, the TGI amounted to 36.1 µM in [7], 28.5 µM in assay [8], 33.9 µM in [9] and 33.2 µM in [10].

With `N#C/C(=C\c1ccc[nH]1)c1cc(-c2ccc(Cl)cc2)nn1-c1ccccc1`, the GI50 in [1] is 1.56 µM; in [2], 5.19 µM; in assay [3], 3.75 µM; in assay [4], 2.37 µM; in assay [5], 3.12 µM; in assay [6], 2.68 µM. Besides, the GI50 in assay [7] is 3.05 µM; in assay [8], 2.7 µM; in assay [9] it was 8.65 µM; in [10], 3.43 µM. Further, the TGI was 13.1 µM in assay [1]; 29.4 µM in assay [2]; over 41.8 µM in assay [3]; 8.69 µM in assay [4]; 23.1 µM in [5]; 11.6 µM in assay [6]. Moreover, the TGI in [7] stood at 17.2 µM; in assay [8] it was 13.2 µM; in assay [9], 34.6 µM; in assay [10], 13.3 µM.

In the case of `OC(c1cc(C(F)(F)F)nc2c(Cl)cc(Cl)cc12)C1CCCCN1` (centres undefined), the TGI in [1] is 19 µM; in assay [2], over 21 µM; in assay [3], 19.2 µM; in assay [4], 12.8 µM; in assay [5] it was over 43.1 µM; in assay [6], 19.3 µM. Also, the TGI in [7] is over 36.9 µM; in assay [8] it was 18.4 µM; in assay [9] it was over 43.8 µM; in assay [10], over 26.7 µM.

Turning to `CC1Cc2c(Cl)ncnc2N(C)c2ccccc21` (centres undefined), the GI50 in [1] is 4.29 µM; in assay [2], 1.76 µM; in assay [3], 3.08 µM; in [4], 3.4 µM; in [5], 3.9 µM; in [6], 3.33 µM. Besides, the GI50 is 2.03 µM in assay [7], 3.24 µM in assay [8], 2.61 µM in [9] and 3.87 µM in assay [10]. The TGI in [1] is 37.4 µM; in assay [2], 3.7 µM; in assay [3], 11.2 µM; in assay [4], 20.1 µM; in assay [5], 66.9 µM; in [6], over 100 µM. Moreover, the TGI is 7.5 µM in assay [7], 16.7 µM in assay [8], 6.1 µM in [9] and over 100 µM in [10].

`Nc1nc2cc(Cl)ccc2n1N`: the TGI in assay [1], in assay [2], in [3], in assay [5], in assay [6] and in [7] was over 100 µM throughout. In assay [8], this compound displayed a TGI of over 100 µM.

Regarding `O=C(Nc1cccc([N+](=O)[O-])c1)c1cccc(C(=O)Nc2cccc([N+](=O)[O-])c2)c1`, the GI50 was 56.9 µM in assay [1]; 3.32 µM in assay [2]; over 100 µM in assay [3]; over 100 µM in assay [4]; over 100 µM in assay [5]; over 100 µM in assay [6]. In addition, the GI50 in [7] is over 100 µM; in [8] it was over 100 µM; in [10], over 61.9 µM. Moreover, the TGI in assay [1], in [2], in [3], in assay [4], in [5] and in assay [6] was over 100 µM throughout. Further, the TGI in assay [7], in assay [8] and in assay [10] was over 100 µM throughout.

`Oc1c(C(Nc2ccccn2)c2ccccc2)ccc2cccnc12` (centres undefined): the TGI in assay [1] was over 31.6 µM; in [2] it was 11.8 µM; in [3] it was over 100 µM; in assay [4], 12.4 µM; in assay [5] it was 30.3 µM; in assay [6] it was over 100 µM. For the same compound, the results for the TGI in [7], in assay [8] and in assay [9] were 22 µM, over 100 µM and over 28.4 µM, respectively.

`c1ccc2c(N=NSc3ncnc4nc[nH]c34)c3ccccc3nc2c1`: the GI50 was 1.44 µM in assay [1]; 1.35 µM in [2]; 2.43 µM in assay [4]; 1.63 µM in assay [5]; 1.61 µM in assay [6]; 2.01 µM in [7]. In addition, the GI50 in assay [8] is 1.97 µM; in assay [9], 1.64 µM; in assay [10], 0.877 µM. Besides, the TGI in [1] was 11 µM; in [2], 3.36 µM; in [4] it was 8.78 µM; in [5], 8.04 µM; in assay [6] it was 10.7 µM; in [7], 4.11 µM. For the same compound, the TGI stood at 6.12 µM in [8], 3.61 µM in assay [9] and 5.67 µM in [10].

For `O=C(O)c1cc(NCc2cc(O)ccc2O)ccc1O`, the TGI in [1] was over 100 µM; in [2], 40.7 µM; in assay [3], 50.6 µM; in assay [4], over 100 µM; in assay [5], over 100 µM; in assay [6], over 100 µM. Moreover, the TGI in [8], in assay [9] and in assay [10] was over 100 µM throughout.
